Experimental data from article PMC3402541, “Guanidylation and Tail Effects in Cationic Antimicrobial Lipopeptoids” (PLoS ONE, 2012).
Converted amounts (≈) assume the structure as drawn.

Experiments:
ovine erythrocytes = assay: Haemolytic assay; format: cell-based, sheep; conditions: ovine erythrocytes in Tris buffered saline, 30 minutes, absorbance of supernatant at 540 nm
Procedure: Mammalian cell toxicity was determined by measuring lysis of ovine erythrocytes, a standard model for human cell toxicity. Cells were prewashed with Tris buffered saline and then incubated with a variety of lipopeptoid concentrations for 30 minutes. Following centrifugation, lysis was evaluated by testing the absorbance of the solution at 540 nm, with 0.5% NH4OH used as a positive control.
Toxicity to mammalian cells was determined using a sheep red blood cell (erythrocyte) haemolytic assay (4). Erythrocytes were washed and resuspended in Tris buffered saline prior to use, at a concentration of 1.46 - 4.5 x 10^9 cells/mL (on average 3.08 x 10^9 cells/mL). The cell suspension was diluted with varying concentrations of antimicrobials, from 50 μg/mL to 1 mg/mL and incubated for thirty minutes (final erythrocyte concentration 4.08 x 10^8 cells/mL). The samples were centrifuged following treatment and the absorbance of the supernatant was measured at 540 nm. A solution of 0.5% […] was used as a positive control, with normal buffered solution as the negative control. The toxicity was assessed as a function of percent haemolysis.

S.aureus ATCC 29213 = format: cell-based, Staphylococcus aureus; conditions: ATCC 29213, 24 h
Procedure: (§1) Antimicrobial activity of the purified lipopeptoids was determined without replication against a panel of clinically relevant and standard reference bacterial strains according to CLSI macrobroth standards. Stock solutions at 512 µg/mL were prepared in water, with DMSO as needed, and testing was performed in glass test tubes using Muller-Hinton broth and bacteria adjusted to 5 × 10^5 CFU/mL. Bacteria were incubated with the lipopeptoid of interest for 24 hr at 37°C prior to reading.
(§2) The bacteria Staphylococcus aureus ATCC 29213, methicillin-resistant S. aureus ATCC 33592, Staphylococcus epidermidis ATCC 14990, Enterococcus faecalis ATCC 29212, E. faecium ATCC 27270, Streptococcus pneumoniae ATCC 49619, Escherichia coli ATCC 25922, Pseudomonas aeruginosa ATCC 27853, and Klebsiella pneumoniae ATCC 13883 were acquired from the American Type Culture Collection (ATCC) and used as quality controls. The clinical strains methicillin-resistant S. epidermidis (MRSE) CAN-ICU 61589, E. coli CAN-ICU 61714, E. coli CAN-ICU 63074, P. aeruginosa CAN-ICU 62308, Stenotrophomonas maltophilia CAN-ICU 62584, Acinetobacter baumannii CAN-ICU 63169 were obtained from hospitals across Canada as part of the CAN-ICU studies, while methicillin-susceptible S. epidermidis (MSSE) 81388 was obtained from the 2008 CANWARD study.
(§3) After subculturing the relevant bacteria twice from frozen stock, in vitro activities of the antimicrobials were determined by macrobroth dilution methodology in accordance with the Clinical and Laboratory Standards Institute (CLSI) guidelines (3). The MICs were determined using glass test tubes (2 mL/tube) containing doubling antimicrobial dilutions of cation adjusted Mueller-Hinton broth inoculated to achieve a final concentration of approximately 5 x 10^5 CFU/mL, incubated in ambient air for 24 hr prior to reading. Colony counts were performed periodically to confirm inocula. The ATCC organisms […] ATCC 49619, Staphylococcus aureus ATCC 29213, Enterococcus faecalis ATCC 29212, Escherichia coli ATCC 25922, and Pseudomonas aeruginosa ATCC 27853 were used as quality control and to allow easy comparison to previously tested antimicrobials. Each test in this series was performed without replication. In our experience with cationic amphiphiles the results are accurate to within a single doubling.

E. faecium ATCC 27270 = format: cell-based; conditions: ATCC 27270, 24 h
Procedure: as §1, §2, §3

MSSE 81388 CANWARD 2008 = format: cell-based, methicillin-susceptible S. epidermidis; conditions: 24 h
Procedure: as §1, §2, §3

MRSA ATCC 33592 = format: cell-based, methicillin-resistant S. aureus; conditions: ATCC 33592, 24 h
Procedure: as §1, §2, §3

K.pneumoniae ATCC 13883 = format: cell-based, Klebsiella pneumoniae; conditions: ATCC 13883, 24 h
Procedure: as §1, §2, §3

[1] = test system: P.aeruginosa CAN-ICU 62308; format: cell-based, Pseudomonas aeruginosa; conditions: CAN-ICU 62308, 24 h
Procedure: as §1, §2, §3

P.aeruginosa ATCC 27853 = format: cell-based, Pseudomonas aeruginosa; conditions: ATCC 27853, 24 h
Procedure: as §1, §2, §3

E.coli CAN-ICU 63074 = format: cell-based, Escherichia coli; conditions: CAN-ICU 63074, 24 h
Procedure: as §1, §2, §3

E.coli ATCC 25922 = format: cell-based, Escherichia coli; conditions: ATCC 25922, 24 h
Procedure: as §1, §2, §3

E.coli CAN-ICU 61714 = format: cell-based, Escherichia coli; conditions: CAN-ICU 61714, 24 h
Procedure: as §1, §2, §3

MRSE CAN-ICU 61589 = format: cell-based, methicillin-resistant S. epidermidis; conditions: CAN-ICU 61589, 24 h
Procedure: as §1, §2, §3

S.pneumoniae ATCC 49619 = format: cell-based, Streptococcus pneumoniae; conditions: ATCC 49619, 24 h
Procedure: as §1, §2, §3

E. faecalis ATCC 29212 = format: cell-based, Enterococcus faecalis; conditions: ATCC 29212, 24 h
Procedure: as §1, §2, §3

[2] = test system: A. baumannii CAN-ICU 63169; format: cell-based, Acinetobacter baumannii; conditions: CAN-ICU 63169, 24 h
Procedure: as §1, §2, §3

[3] = test system: S. maltophilia CAN-ICU 62584; format: cell-based, Stenotrophomonas maltophilia; conditions: CAN-ICU 62584, 24 h
Procedure: as §1, §2, §3

Compound	MIC S.aureus (S.aureus ATCC 29213) [µg/mL]	MIC S.aureus in the presence of 4% bovine serum albumin (S.aureus ATCC 29213) [µg/mL]	MIC E. faecium (E. faecium ATCC 27270) [µg/mL]	MIC E. faecium in the presence of 4% bovine serum albumin (E. faecium ATCC 27270) [µg/mL]	MIC MSSE (MSSE 81388 CANWARD 2008) [µg/mL]	MIC MSSE in the presence of 4% bovine serum albumin (MSSE 81388 CANWARD 2008) [µg/mL]	MIC MRSA (MRSA ATCC 33592) [µg/mL]	MIC MRSA in the presence of 4% bovine serum albumin (MRSA ATCC 33592) [µg/mL]	MIC K.pneumoniae (K.pneumoniae ATCC 13883) [µg/mL]	MIC K.pneumoniae in the presence of 4% bovine serum albumin (K.pneumoniae ATCC 13883) [µg/mL]	MIC P.aeruginosa [1] [µg/mL]	MIC P.aeruginosa in the presence of 4% bovine serum albumin [1] [µg/mL]	MIC P.aeruginosa (P.aeruginosa ATCC 27853) [µg/mL]	MIC P.aeruginosa in the presence of 4% bovine serum albumin (P.aeruginosa ATCC 27853) [µg/mL]	MIC E.coli (E.coli CAN-ICU 63074) [µg/mL]	MIC E.coli in the presence of 4% bovine serum albumin (E.coli CAN-ICU 63074) [µg/mL]	MIC E.coli (E.coli ATCC 25922) [µg/mL]	MIC E.coli in the presence of 4% bovine serum albumin (E.coli ATCC 25922) [µg/mL]	MIC E.coli (E.coli CAN-ICU 61714) [µg/mL]	MIC E.coli in the presence of 4% bovine serum albumin (E.coli CAN-ICU 61714) [µg/mL]	other results
CCCCCCCCCCC(=O)N(CCCCNC(=N)N)CC(=O)NCC(=O)N(CCCCNC(=N)N)CC(N)=O [C11-NhargGNharg]	128 (≈ 220 µM)	512	256 (≈ 439 µM)	512	128 (≈ 220 µM)	256	128 (≈ 220 µM)	512	512 (≈ 879 µM)	512	512 (≈ 879 µM)	512	>512	>512	512 (≈ 879 µM)	>512	512 (≈ 879 µM)	512	512 (≈ 879 µM)	>512	Percent haemolysis at 100µg/mL of compound (ovine erythrocytes): 1.49%; MIC MRSE (MRSE CAN-ICU 61589): 128 µg/mL (≈ 220 µM); MIC MRSE in the presence of 4% bovine serum albumin (MRSE CAN-ICU 61589): 512 µg/mL; MIC S.pneumoniae (S.pneumoniae ATCC 49619): 512 µg/mL (≈ 879 µM); MIC S.pneumoniae in the presence of 4% bovine serum albumin (S.pneumoniae ATCC 49619): >512 µg/mL; MIC E. faecalis (E. faecalis ATCC 29212): 256 µg/mL (≈ 439 µM); MIC E. faecalis in the presence of 4% bovine serum albumin (E. faecalis ATCC 29212): >512 µg/mL; MIC A. baumannii [2]: 512 µg/mL (≈ 879 µM); MIC A. baumannii in the presence of 4% bovine serum albumin [2]: >512 µg/mL; MIC S. maltophilia [3]: >512 µg/mL; MIC S. maltophilia in the presence of 4% bovine serum albumin [3]: >512 µg/mL
CCCCCCCCCCC(=O)N(CCCCNC(=N)N)CC(=O)N(CCCCNC(=N)N)CC(=O)N(CCCCNC(=N)N)CC(N)=O [C11-NhargNhargNharg]	128 (≈ 184 µM)	512	256 (≈ 368 µM)	512	64 (≈ 92 µM)	512	128 (≈ 184 µM)	512	>512	>512	>512	>512	>512	>512	>512	>512	>512	>512	>512	>512	MIC MRSE (MRSE CAN-ICU 61589): 256 µg/mL (≈ 368 µM); MIC MRSE in the presence of 4% bovine serum albumin (MRSE CAN-ICU 61589): 512 µg/mL; MIC S.pneumoniae (S.pneumoniae ATCC 49619): 512 µg/mL (≈ 736 µM); MIC S.pneumoniae in the presence of 4% bovine serum albumin (S.pneumoniae ATCC 49619): >512 µg/mL; MIC E. faecalis (E. faecalis ATCC 29212): 512 µg/mL (≈ 736 µM); MIC E. faecalis in the presence of 4% bovine serum albumin (E. faecalis ATCC 29212): >512 µg/mL; MIC A. baumannii [2]: >512 µg/mL; MIC A. baumannii in the presence of 4% bovine serum albumin [2]: >512 µg/mL; MIC S. maltophilia [3]: >512 µg/mL; MIC S. maltophilia in the presence of 4% bovine serum albumin [3]: >512 µg/mL
CCCCCCCCCCCCCC(=O)N(CCCCNC(=N)N)CC(=O)NCC(=O)N(CCCCNC(=N)N)CC(N)=O [C14-NhargGNharg]	16 (≈ 25.6 µM)	512	32 (≈ 51.2 µM)	512	8 (≈ 12.8 µM)	512	16 (≈ 25.6 µM)	512	256 (≈ 410 µM)	>512	128 (≈ 205 µM)	>512	64 (≈ 102 µM)	>512	64 (≈ 102 µM)	>512	32 (≈ 51.2 µM)	512	64 (≈ 102 µM)	>512	Percent haemolysis at 100µg/mL of compound (ovine erythrocytes): 55.44%; MIC MRSE (MRSE CAN-ICU 61589): 16 µg/mL (≈ 25.6 µM); MIC MRSE in the presence of 4% bovine serum albumin (MRSE CAN-ICU 61589): 512 µg/mL; MIC S.pneumoniae (S.pneumoniae ATCC 49619): 128 µg/mL (≈ 205 µM); MIC S.pneumoniae in the presence of 4% bovine serum albumin (S.pneumoniae ATCC 49619): 512 µg/mL; MIC E. faecalis (E. faecalis ATCC 29212): 32 µg/mL (≈ 51.2 µM); MIC E. faecalis in the presence of 4% bovine serum albumin (E. faecalis ATCC 29212): 512 µg/mL; MIC A. baumannii [2]: 512 µg/mL (≈ 819 µM); MIC A. baumannii in the presence of 4% bovine serum albumin [2]: >512 µg/mL; MIC S. maltophilia [3]: 256 µg/mL (≈ 410 µM); MIC S. maltophilia in the presence of 4% bovine serum albumin [3]: >512 µg/mL
CCCCCCCCCCCCCC(=O)N(CCCCNC(=N)N)CC(=O)N(CCCCNC(=N)N)CC(=O)N(CCCCNC(=N)N)CC(N)=O [C14-NhargNhargNharg]	16 (≈ 21.7 µM)	256	16 (≈ 21.7 µM)	256	8 (≈ 10.8 µM)	512	16 (≈ 21.7 µM)	512	256 (≈ 347 µM)	512	128 (≈ 173 µM)	512	256 (≈ 347 µM)	>512	64 (≈ 86.7 µM)	512	64 (≈ 86.7 µM)	512	64 (≈ 86.7 µM)	512	Percent haemolysis at 100µg/mL of compound (ovine erythrocytes): 20.34%; MIC MRSE (MRSE CAN-ICU 61589): 16 µg/mL (≈ 21.7 µM); MIC MRSE in the presence of 4% bovine serum albumin (MRSE CAN-ICU 61589): 256 µg/mL; MIC S.pneumoniae (S.pneumoniae ATCC 49619): 64 µg/mL (≈ 86.7 µM); MIC S.pneumoniae in the presence of 4% bovine serum albumin (S.pneumoniae ATCC 49619): 256 µg/mL; MIC E. faecalis (E. faecalis ATCC 29212): 32 µg/mL (≈ 43.4 µM); MIC E. faecalis in the presence of 4% bovine serum albumin (E. faecalis ATCC 29212): 512 µg/mL; MIC A. baumannii [2]: 256 µg/mL (≈ 347 µM); MIC A. baumannii in the presence of 4% bovine serum albumin [2]: >512 µg/mL; MIC S. maltophilia [3]: 256 µg/mL (≈ 347 µM); MIC S. maltophilia in the presence of 4% bovine serum albumin [3]: >512 µg/mL
